In patent US20200277268A1, “PENTAFLUOROPHENYL SULFONAMIDE COMPOUNDS, COMPOSITIONS AND USES THEREOF” (DALRIADA THERAPEUTICS INC., priority 2017, published 2020):
Entries after “also recorded” stand apart in the source; their conditions may differ.

Key:
[1] = tested on: LN-229; test: Cell viability, glioblastoma LN-229; assay type: cell-based; details: Homo sapiens, glioblastoma cell line
Method: (§1) The anti-cancer efficacy of exemplary compounds of the application were assessed in vitro against different cancer cell lines. […] 1×10^4 cells/well were plated in 96-well assay plates in culture medium. […] In some instances, FBS was removed for periods ranging from 16-24 hours, and re-introduced with test compound addition. After 24 hrs, test compounds and vehicle controls were added to appropriate wells such that the final volume was 100 μl in each well. The cells were cultured for the desired test exposure period (72 hours) at 37° C. and 5% CO2. The assay plates were removed from […] incubator and 20 μl/well of CellTiter-Blue® Reagent was added. The plates were incubated using standard cell culture conditions for 1-4 hours. Afterwards, the plates were shaken for 10 seconds and florescence was recorded at 560/590 nm using a Cytation 3 spectrophotometer. IC50 values were determined using non-linear regression analysis with GraphPad Prism 6.0 (GraphPad Software Inc.).

[2] = Intrinsic clearance in mouse hepatocytes
[3] = tested on: U87MG; test: Cell viability, glioblastoma U87MG; assay type: cell-based; details: Homo sapiens, U-87 MG; glioblastoma cell line
Method: as §1

[4] = tested on: healthy human lung cells (MRC9); test: CellTiter-Blue cell viability, MRC9; assay type: cell-based; details: non-cancerous, 72 hours
Method: (§2) The anti-cancer efficacy of exemplary compounds of the application were assessed in vitro against different cancer cell lines. Cell viability was examined following treatment at various concentrations of inhibitor (0.097656-50 μM) using a CellTiter-Blue® cell viability assay. 1×10^4 cells/well were plated in 96-well assay plates in culture medium. All cells were grown in DMEM, IMDM and RPMI-1640 supplemented with 10% fetal bovine serum (FBS). In some instances, FBS was removed for periods ranging from 16-24 hours, and re-introduced with test compound addition. After 24 hrs, test compounds and vehicle controls were added to appropriate wells such that the final volume was 100 μl in each well. The cells were cultured for the desired test exposure period (72 hours) at 37° C. and 5% CO2. The assay plates were removed from 3° C. incubator and 20 μl/well of CellTiter-Blue® Reagent was added. The plates were incubated using standard cell culture conditions for 1-4 hours. Afterwards, the plates were shaken for 10 seconds and florescence was recorded at 560/590 nm using a Cytation 3 spectrophotometer. IC50 values were determined using non-linear regression analysis with GraphPad Prism 6.0 (GraphPad Software Inc.).

[5] = tested on: primary human fibroblast cells (PHF); test: CellTiter-Blue cell viability, PHF; assay type: cell-based; details: non-cancerous, 72 hours
Method: as §2

[6] = tested on: AR230R; test: Cell viability, CML AR230R; assay type: cell-based; details: Table 4
Method: as §2, with “Inc.). […]” for “Inc.).”

[7] = tested on: MV4-11; test: CellTiter-Blue cell viability, MV4-11; assay type: cell-based; details: Homo sapiens, MV4-11
Method: as §2

[8] = tested on: PL-21; test: Cell viability, AML PL-21; assay type: cell-based; details: Table 4
Method: as §2, with “Inc.). […]” for “Inc.).”

[9] = tested on: BSA, lysozyme, STAT3/5; test: 19F NMR screen against Cys-containing proteins; assay type: binding; details: 100 μM I-1, 2 hours at 37° C.
Method: To assess potential reactivity of I-1 against Cys containing proteins, a series of ^19F NMR studies were conducted with BSA, lysozyme, STAT3, and STATS. […] All samples were prepared in 100 mM HEPES pH 7.4, and 100 μM 5-fluoro-Trp, with a final concentration of 10% D20 and 10% DMSO. The samples were incubated for 2 hours at 37° C. prior to data collection. All spectra were normalized and referenced according to the fluorine peak of 5-fluoro-Trp.

[10] = tested on: MOLM14; test: Cell viability, AML MOLM14; assay type: cell-based; details: Homo sapiens, MOLM-14, Table 4
Method: as §2, with “Inc.). […]” for “Inc.).”

[11] = tested on: AR230; test: Cell viability, CML AR230; assay type: cell-based; details: Table 4
Method: as §2, with “Inc.). […]” for “Inc.).”

[12] = tested on: tubulin; test: Tubulin polymerization assay; assay type: biochemical; details: 10 μM compound, optical density 340 nm
[13] = tested on: MOLM13; test: CellTiter-Blue cell viability, MOLM13; assay type: cell-based; details: Homo sapiens, MOLM-13
Method: as §2

[14] = tested on: ATCC3034; test: Cell viability, medulloblastoma ATCC3034; assay type: cell-based; details: medulloblastoma cell line
Method: as §2, with “Inc.). […]” for “Inc.).”

[15] = tested on: UFMylation pathway (UBA5, UFC1, UFM1, c-Myc) in MV4-11 cells; test: Western blot of UFMylation pathway in MV4-11 cells; assay type: cell-based; details: 8 hours
Method: Post-treatment (8 hours) of MV4-11 cells with I-1 test compound at 1, 0.5, 0.25, 0.1 and 0 μM concentrations, all cells were lysed with radioimmunoprecipitation assay (RIPA) buffer: 20 mM Tris pH 7.4, 150 mM NaCl, 0.5% deoxycholate, 1% Triton X-100, 0.1% sodium dodecyl sulfate (SDS). Total protein was measured using BCA assay (Sigma). In each assay, clarified protein were resolved on a 4%-15% polyacrylamideSDS gel and transferred to a PVDF membrane (Bio-Rad). The membranes were blocked with 5% solution of skim milk powder in TBST and incubated for at least 1 hour followed by an overnight incubation at 4° C. in primary antibody (1:1000 dilution). Blots were probed with antibodies against UBA5, UFM1, UFC1, c-Myc, and beta-actin was used as a loading control (Santa Cruz Biotechnology catalog # sc-835). The PVDF membrane then washed with TBST (3 times for 5 minutes). A horseradish peroxides (HRP)-conjugated goat anti-mouse IgG secondary antibodies (Cell signaling Catalog #7076S) was applied to the membrane (1:5000 dilution) and incubated for 1 hour at room temperature. The blots were then rinsed again 3 times in TBST for 10 minutes. Bands were visualized using clarity western ECL substrate luminal/enhancer solution and peroxide solution 1:1 ratio for HRP secondary antibody, according to the manufacturer's instructions (Bio-Rad) and analyzed using Image lab software (Bio-Rad).

[16] = Stability to glutathione, half-life by 19F NMR
[17] = tested on: healthy keratinocyte cells (HaCaT); test: CellTiter-Blue cell viability, HaCaT; assay type: cell-based; details: Homo sapiens, non-cancerous, 72 hours
Method: as §2

[18] = tested on: LN-18; test: Cell viability, glioblastoma LN-18; assay type: cell-based; details: Homo sapiens, glioblastoma cell line
Method: as §1

[19] = tested on: A-172; test: Cell viability, glioblastoma A-172; assay type: cell-based; details: Homo sapiens, glioblastoma cell line
Method: as §1

IC50 [1]: 3030 nM | half-life at 1 μM [2]: 3.07 h | IC50 [3]: 2870 nM | IC50 ([7]; AML cell line, 72 hours): 470 nM | IC50 ([7]; AML, Table 4): 600 nM | IC50 [10]: 1700 to 2500 nM | IC50 ([13]; AML cell line, 72 hours): 1500 nM | IC50 ([13]; AML, Table 4): 2500 nM | IC50 [14]: 800 nM | increase in T1/2 as compared to Batabulin [16]: greater than 7 fold | IC50 [18]: 4920 nM | IC50 [19]: 7160 nM
SMILES: O=S(=O)(c1c(F)c(F)c(F)c(F)c1F)N(Cc1ccc(F)cc1)C1CC1 [Compound I-1, N-cyclopropyl-2,3,4,5,6-pentafluoro-N-(4-fluorobenzyl)benzenesulfonamide]
IC50 [4]: 25000 nM | IC50 [5]: 3400 nM | IC50 [6]: 1500 nM | IC50 [8]: 3500 nM | reactivity towards Cys-containing proteins (free fluoride release) [9]: no significant fluoride release; also recorded: unreactive | IC50 [11]: 4100 nM | inhibition of tubulin polymerization [12]: Negligible inhibition; also recorded: no significant inhibitory action | concentration at which UFM1-UFC1 conjugate levels decrease [15]: ≥ 250 nM | concentration at which c-Myc levels decrease [15]: ≥ 250 nM | concentration giving complete wipe-out of UBA5 total protein [15]: greater than 500 nM | concentration giving reduction of UBA5 total protein levels [15]: 250 nM | IC50 [17]: 12500 nM
